Laboratory results reported in US20250215039A1, “NUCLEOSIDES FOR TREATING CANCER” (PRIMEFOUR THERAPEUTICS, INC., priority 2022, published 2025).
Like-named read-outs stand apart in the source and are kept apart here.

Test system: cancer cell lines
Assay: Cancer cell proliferation activity (CellTiterGlo, 72 h)
Type: cell-based
Conditions: 72 h, 72 h, read-out: IC50 cell proliferation
Outline: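 Cells seeded overnight at 37 °C, then dosed with compound at 0.1% final DMSO and incubated 72 h at 37 °C (5% or 10% CO2 by medium).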

## C[C@]1(CO)O[C@@H](n2cnc3c(N)nc(F)nc32)[C@H](O)[C@@H]1O [Cpd. No. 178, (2R,3S,4R,5R)-5-(6-amino-2-fluoro-9H-purin-9-yl)-2-(hydroxymethyl)-2-methyltetrahydrofuran-3,4-diol]
5637 (bladder)
  IC50: 160 nM
CLS439 (bladder)
  IC50: 770 nM
HS729 (muscle)
  IC50: 120 nM
J82 (bladder)
  IC50: 80 nM
JAR (placenta)
  IC50: 30 nM
MT3 (breast)
  IC50: 40 nM
PANCI (pancreas)
  IC50: 14900 nM
PC3 (prostate)
  IC50: 70 nM
RD (muscle)
  IC50: 70 nM
T24 (bladder)
  IC50: 90 nM
Homo sapiens, 22Rv1, 72 h, 22RV1 (prostate)
  IC50: 250 nM
Homo sapiens, 786-0, 72 h, 786O (kidney)
  IC50: 70 nM
Homo sapiens, A204, 72 h, A204 (muscle)
  IC50: 30 nM
Homo sapiens, A549, 72 h, A549 (lung)
  IC50: 370 nM
Homo sapiens, A673, 72 h, A673 (bone)
  IC50: 360 nM
Homo sapiens, A2780, 72 h, A2780 (ovary)
  IC50: 150 nM
Homo sapiens, A-375, 72 h, A375 (skin)
  IC50: 40 nM
Homo sapiens, A-431, 72 h, A431 (skin)
  IC50: 50 nM
Homo sapiens, ACHN, ACHN (kidney)
  IC50: 460 nM
Homo sapiens, ASPC1, 72 h, ASPC1 (pancreas)
  IC50: 30 nM
Homo sapiens, BT-20, 72 h, BT20 (breast)
  IC50: 70 nM
Homo sapiens, BXPC-3, 72 h, BXPC3 (pancreas)
  IC50: 520 nM
Homo sapiens, C-33-A, C33A (endometrial)
  IC50: 60 nM
Homo sapiens, CAKI-1, 72 h, CAKI1 (kidney)
  IC50: 10 nM
Homo sapiens, COLO 205, 72 h, COLO205 (colon)
  IC50: 170 nM
Homo sapiens, COLO-678, 72 h, COLO678 (colon)
  IC50: 650 nM
Homo sapiens, Ca-Ski, CASKI (endometrial)
  IC50: 40 nM
Homo sapiens, Caco-2, 72 h, CACO2 (colon)
  IC50: 160 nM
Homo sapiens, Calu-6, 72 h, CALU6 (lung)
  IC50: 30 nM
Homo sapiens, DLD-1, 72 h, DLD1 (colon)
  IC50: 350 nM
Homo sapiens, DU-145, 72 h, DU145 (prostate)
  IC50: 20 nM
Homo sapiens, EFO-21, 72 h, EFO21 (ovary)
  IC50: 80 nM
Homo sapiens, EJ-28, 72 h, EJ28 (bladder)
  IC50: 60 nM
Homo sapiens, Granta-519, 72 h, GRANTA-519 (hematological)
  IC50: 2840 nM
Homo sapiens, HCT-15, 72 h, HCT15 (colon)
  IC50: 140 nM
Homo sapiens, HCT-116, 72 h, HCT116 (colon)
  IC50: 160 nM
Homo sapiens, HEK293, 72 h, HEK293 (kidney)
  IC50: 70 nM
Homo sapiens, HL-60, 72 h, HL-60 (hematological)
  IC50: 40 nM
Homo sapiens, HT-29, 72 h, HT29 (colon)
  IC50: 50 nM
Homo sapiens, HT-1080, 72 h, HT1080 (connective tissue)
  IC50: 2090 nM
Homo sapiens, HeLa, HELA (endometrial)
  IC50: 70 nM
Homo sapiens, HepG2, 72 h, HEPG2 (liver)
  IC50: 60 nM
Homo sapiens, Hs-578T, HS578T (breast)
  IC50: 70 nM
Homo sapiens, IGROV-1, 72 h, IGROV1 (ovary)
  IC50: 30 nM
Homo sapiens, IMR-90, 72 h, IMR90 (lung)
  IC50: 50 nM
Homo sapiens, JEG-3, 72 h, JEG3 (placenta)
  IC50: 40 nM
Homo sapiens, JIMT-1, 72 h, JIMT1 (breast)
  IC50: 20 nM
Homo sapiens, K562, 72 h, K-562 (hematological)
  IC50: 1170 nM
Homo sapiens, Kasumi 1, 72 h, KASUMI-1 (hematological)
  IC50: 20 nM
Homo sapiens, L-363, 72 h, L-363 (hematological)
  IC50: 20 nM
Homo sapiens, LoVo, LOVO (colon)
  IC50: 20 nM
Homo sapiens, MCF7, 72 h, MCF7 (breast)
  IC50: 2550 nM
Homo sapiens, MDA-MB-231, 72 h, MDAMB231 (breast)
  IC50: 1060 nM
Homo sapiens, MDA-MB-435, 72 h, MDAMB435 (skin)
  IC50: 190 nM
Homo sapiens, MDA-MB-436, 72 h, MDAMB436 (breast)
  IC50: 50 nM
Homo sapiens, MDA-MB-468, 72 h, MDAMB468 (breast)
  IC50: 90 nM
Homo sapiens, MG-63, 72 h, MG63 (bone)
  IC50: 3610 nM
Homo sapiens, MHH-ES-1, 72 h, MHHES1 (bone)
  IC50: 100 nM
Homo sapiens, MIA PaCa-2, 72 h, MIAPACA2 (pancreas)
  IC50: 7250 nM
Homo sapiens, MINO, MINO (hematological)
  IC50: 20 nM
Homo sapiens, MV4-11, 72 h, MV4-11 (hematological)
  IC50: 20 nM
Homo sapiens, NCI-H23, 72 h, NCI-H23 (lung)
  IC50: 60 nM
Homo sapiens, NCI-H82, 72 h, NCIH82 (lung)
  IC50: 70 nM
Homo sapiens, NCI-H292, 72 h, NCIH292 (lung)
  IC50: 830 nM
Homo sapiens, NCI-H460, 72 h, NCIH460 (lung)
  IC50: 40 nM
Homo sapiens, OVCAR-3, 72 h, OVCAR3 (ovary)
  IC50: 30 nM
Homo sapiens, OVCAR-4, 72 h, OVCAR4 (ovary)
  IC50: 80 nM
Homo sapiens, PLC-PRF-5, 72 h, PLCPRF5 (liver)
  IC50: 450 nM
Homo sapiens, Panc1005, 72 h, PANC1005 (pancreas)
  IC50: 60 nM
Homo sapiens, Ramos, RAMOS (hematological)
  IC50: 130 nM
Homo sapiens, SAOS-2, 72 h, SAOS2 (bone)
  IC50: 50 nM
Homo sapiens, SF-268, 72 h, SF268 (brain)
  IC50: 1880 nM
Homo sapiens, SF-295, 72 h, SF295 (brain)
  IC50: 230 nM
Homo sapiens, SK-BR-3, 72 h, SKBR3 (breast)
  IC50: 10 nM
Homo sapiens, SK-HEP1, 72 h, SKHEP1 (liver)
  IC50: 450 nM
Homo sapiens, SK-LMS-1, 72 h, SKLMS1 (uterus)
  IC50: 40 nM
Homo sapiens, SK-MEL-5, 72 h, SKMEL5 (skin; SKMELS [sic] in Table 9E)
  IC50: 580 nM
Homo sapiens, SK-MEL-28, 72 h, SKMEL28 (skin)
  IC50: 100 nM
Homo sapiens, SK-N-AS, SKNAS (brain)
  IC50: 70 nM
Homo sapiens, SK-N-SH, SKNSH (brain)
  IC50: 30 nM
Homo sapiens, SK-OV-3, 72 h, SKOV3 (ovary)
  IC50: 60 nM
Homo sapiens, SNB-75, 72 h, SNB75 (brain)
  IC50: 160 nM
Homo sapiens, SU-DHL10, 72 h, SU-DHL-10 (hematological)
  IC50: 440 nM
Homo sapiens, SU-DHL-6, 72 h, SU-DHL-6 (hematological)
  IC50: 30 nM
Homo sapiens, SW-620, 72 h, SW620 (colon)
  IC50: 50 nM
Homo sapiens, TE-671, 72 h, TE671 (muscle)
  IC50: 370 nM
Homo sapiens, THP-1, 72 h, THP-1 (hematological)
  IC50: 1770 nM
Homo sapiens, U2OS, U20S (bone; U2OS in Table 9E)
  IC50: 60 nM
Homo sapiens, U-87 MG, U87MG (brain)
  IC50: 2010 nM
Homo sapiens, UMUC3, 72 h, UMUC3 (bladder)
  IC50: 980 nM
Homo sapiens, UO-31, 72 h, UO31 (kidney)
  IC50: 40 nM
Homo sapiens, WSU-NHL, WSU-NHL (hematological)
  IC50: 30 nM
NCI-H358M, NCIH358M (lung)
  IC50: 70 nM
PBMC, PBMC (hematological)
  IC50: 320 nM
RD-ES, RDES (bone)
  IC50: 30 nM
